From the METLIN SMRT retention time set (Domingo-Almenara et al. 2019) come the findings set out here.

The structures appear in SMILES notation.

The data set can be described thus: gradient 5% acetonitrile 3 min, to 50% in 2 min, to 85% in 15 min, held 3 min, 100 µL/min. The following applies: column: Zorbax Extend-C18 2.1 x 50 mm; eluents: water / acetonitrile, 0.1% formic acid. Summed up:
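Retention times of pure standards were taken from adduct peaks that were selected by computer and manually inspected. Over 3 months, mixtures of ~100 molecules were run by HPLC–quadrupole time-of-flight mass spectrometry in positive and negative ionization mode. The Zorbax Extend-C18 column (2.1 × 50 mm, 1.8 μm) ran at 100 μL/min in water and acetonitrile, each containing 0.1% formic acid, with 40 μL dead volume and 900 μL dwell volume.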
`Cc1cc(=O)n(CC(=O)Nc2cccc(Cl)c2)c(N(C)Cc2ccccc2)n1` showed an RP-LC retention time of 797 s.

Turning to `COc1cc(NC(=O)COc2cc(C(F)(F)F)c3c(C)nn(C)c3n2)cc(OC)c1`, the RP-LC retention time came out at 1030 s.

Compound `Cc1ccc(Nc2nc(-c3ccc(C)cc3)c(CC(=O)O)s2)cc1` gave an RP-LC retention time of 946 s.

In the case of `CCNC(=O)c1nc(C(=O)NC(C)C)cs1`, the RP-LC retention time was 656 s.

The compound `CCC1Oc2ccc(S(=O)(=O)N3CCC(C(=O)Nc4cccc(C)c4C)CC3)cc2NC1=O` (centres undefined) yielded an RP-LC retention time of 837 s.

In the case of `O=C(NCCCOc1cccc2cccnc12)c1cc(=O)c2ccccc2o1`, the RP-LC retention time is 648 s.

With `COc1cccc(-c2nnc(NC(=O)c3ccccc3Br)o2)c1`, the RP-LC retention time stood at 734 s.

`O=C(Nc1ccc(F)c(F)c1)C1CCN(C(=O)c2ncn3c2COC(c2ccc(F)cc2)C3)CC1` (centres undefined): the RP-LC retention time was found to be 852 s.

Compound `CCOC(=O)C1CCN(c2ncnc3c2cnn3-c2cccc(C)c2)CC1` gave an RP-LC retention time of 1080 s.

Take `Cc1cccc(N2CCN(c3cc(C)nc4c(-c5ccccc5)cnn34)CC2)n1`: the RP-LC retention time worked out at 738 s.

With `Cc1cc(C(=O)Nc2nnc(-c3cc4ccccc4o3)o2)c(C)o1`, the RP-LC retention time was determined as 812 s.

The compound `CCc1ccccc1NC(=O)Cc1c(C)n(C)c2nc(-c3ccccc3)nn2c1=O` came in with an RP-LC retention time of 865 s.

As for `Cc1ccc(C(=O)N2CCC(COc3ccc(C(=O)NC(C)C)cc3)CC2)cc1C`, the RP-LC retention time was 916 s.

`CCOCCCN1C(=O)c2cc(-c3ccccc3)nn2CC1(C)C(=O)NCc1ccccc1` (centres undefined) yielded an RP-LC retention time of 914 s.

Take `CN1C(=O)c2cc(C(=O)NCCC3=CCCCC3)nn2CC1(C)C(=O)NCc1ccccc1` (centres undefined): the RP-LC retention time amounted to 853 s.

Regarding `COc1cccc(CNC2CCN(c3ccc(C(=O)NC4CC4)cn3)C2)c1O` (centres undefined), the RP-LC retention time is 556 s.

Take `CCCC(=O)Nc1ccc(-n2cnc(C(=O)NCC)c2)nc1`: the RP-LC retention time is 634 s.

On to `CCCOC(=O)c1ccc(Oc2c(C)oc3cc(OCC#N)ccc3c2=O)cc1`, for which the RP-LC retention time was 958 s.

Regarding `Cc1ccc(C)c(NC(=O)N(C)CC2CCOC2)c1` (centres undefined), the RP-LC retention time stood at 705 s.

`O=C(NCc1cccnc1)C1c2ccccc2C(=O)N1Cc1ccccc1` (centres undefined): the RP-LC retention time was 604 s.

`Cc1c(Cl)cccc1NC(=O)N1CCCC(Cn2cnc3cccnc32)C1` (centres undefined) had an RP-LC retention time of 747 s.

Turning to `O=C(Cc1nnc2c(-c3nc(C4CC4)no3)cccn12)N1CCCCCC1`, the RP-LC retention time stood at 674 s.

The compound `Cc1cc(C)cc(NC(=O)Cc2csc3nc(-c4ccc(C)c(C)c4)cn23)c1` yielded an RP-LC retention time of 966 s.

As to `O=C(NC1CCCCC1)c1ccc2c(c1)CCN2C(=O)C1CC1`, the RP-LC retention time was determined as 824 s.

As to `O=C(NC1(c2nc(-c3cnccn3)no2)CCCCC1)c1ccco1`, the RP-LC retention time was 712 s.

Take `COC(=O)c1cc(OCC(=O)Nc2cc(F)ccc2F)c2cc(OC)ccc2n1`: the RP-LC retention time was 880 s.

For the compound `CCOC(=O)COc1cc(-c2ccccc2)nc2ccc(NC(=O)COc3ccc(F)cc3)cc12`, the RP-LC retention time is 868 s.

For `CCN1CCN(c2cc(C)c3cc(NC(=O)COc4ccc(F)cc4)ccc3n2)CC1`, the RP-LC retention time turned out to be 594 s.

As to `CC[C@H](C)C(=O)O[C@H]1CCC=C2C=C[C@H](C)[C@H](CC[C@@H](O)C[C@@H](O)CC(=O)O)[C@H]21`, the RP-LC retention time came to 910 s.

In turn, `O=c1n(Cc2ccccc2F)nc2c(S(=O)(=O)N3CCOCC3)cccn12` returned an RP-LC retention time of 745 s.

Take `CN(C)CC1(O)CCC2(CCN(C(=O)CC3CCCC3)CC2)CC1`: the RP-LC retention time was found to be 598 s.

For the compound `CCCn1c(C2CCN(S(=O)(=O)c3ccccc3)C2)nc2cccnc21` (centres undefined), the RP-LC retention time is 783 s.

With `CC(=O)N1c2ccc(S(=O)(=O)N3CCCC3)cc2CC1C(=O)NCCCN1CCCCC1` (centres undefined), the RP-LC retention time was found to be 626 s.

Consider `Cc1cccc(C)c1NC(=O)N1CCC(OC2CCN(S(C)(=O)=O)CC2)CC1`, for which the RP-LC retention time came to 718 s.

On to `O=C(NCc1ccccc1)Nc1cccn2ncnc12`, for which the RP-LC retention time came out at 702 s.

On to `Cc1nn2c(CNC(=O)c3cccc(Br)c3)c(C)nc2s1`, for which the RP-LC retention time came to 662 s.

Compound `Cc1ccc(CC(=O)NC2CCN(c3nnc4cccc(C)n34)CC2)cc1` showed an RP-LC retention time of 680 s.

Consider `CCn1cc(-c2nc(CC(=O)Nc3ccc(C)cc3F)cs2)c2cccnc21`, for which the RP-LC retention time came out at 865 s.

`Fc1cccc(F)c1C1SCc2nc3ccccc3n21` (centres undefined) had an RP-LC retention time of 797 s.

As for `CC(C)c1ccc(-n2ccnc(NC(=O)Nc3ccc(F)cc3)c2=O)cc1`, the RP-LC retention time stood at 1100 s.

In turn, `COCCCNC(=O)c1cc(-c2ccc(OC)cc2)nc2n[nH]c(-c3ccc(OC)cc3)c12` showed an RP-LC retention time of 1140 s.

With `Cc1ccc(C)c(NC(=O)c2csc(-c3ccc(N4CCCC4)nc3)n2)c1`, the RP-LC retention time came out at 830 s.

As to `O=C(Nc1ncc(Cc2ccccc2Cl)s1)c1cc2ccccc2c(=O)o1`, the RP-LC retention time was 991 s.

`Cc1cc2[nH]c(C(=O)Nc3ccc(Cl)cc3C)c(CN3CCOCC3)c2s1` had an RP-LC retention time of 738 s.

`CC1(C)CC(=O)c2cn(-c3ccccc3)c(=O)c(C(=O)Nc3ccc(Cl)cn3)c2C1` came in with an RP-LC retention time of 1050 s.

As to `COc1ccc(C(=O)N2CCCC2c2nc(-c3cccc(C)c3)no2)cn1` (centres undefined), the RP-LC retention time was 947 s.

Regarding `Cc1ccc(-c2nc(Cn3cccc3C(=O)NC3CCCC3)no2)cc1`, the RP-LC retention time was determined as 1050 s.

`O=C(Nc1nccs1)C1CCN(C(=O)c2cc(-c3ccccc3)on2)CC1` yielded an RP-LC retention time of 732 s.

`CC(=O)c1ccc(NC(=O)C(C)Oc2cc(C(F)(F)F)c3c(C)nn(C)c3n2)cc1` (centres undefined): the RP-LC retention time stood at 968 s.

As for `O=C(NCc1cccc(C(F)(F)F)c1)c1ccnc(N2CCCCC2)n1`, the RP-LC retention time turned out to be 1140 s.

In turn, `CCCn1ccc2sc(C)c(C(=O)NCc3cc(F)ccc3F)c2c1=O` displayed an RP-LC retention time of 940 s.

Compound `O=S(=O)(c1cccnc1)N1CC(c2noc(C3CCCN3CC3CC3)n2)C1` (centres undefined) showed an RP-LC retention time of 592 s.

`O=C(NC1CC1)c1cc(-c2cccs2)n(C2CCS(=O)(=O)C2)n1` (centres undefined) displayed an RP-LC retention time of 710 s.

The compound `COC(=O)c1ccc(CN2N=C(C(=O)N3CCC(C)CC3)S(=O)(=O)c3ccccc32)o1` showed an RP-LC retention time of 891 s.

`Cc1cccc(CN2CCCn3nc(C(=O)NCc4cccs4)cc3C2=O)c1`: the RP-LC retention time is 874 s.

Turning to `Cc1ccc(CNS(=O)(=O)c2ccc(-c3nnc(C)o3)o2)o1`, the RP-LC retention time was found to be 737 s.

The compound `Cc1ccc(C)c(N2CCN(C(=O)C3CCN(S(=O)(=O)c4cn(C)cn4)CC3)CC2)c1` came in with an RP-LC retention time of 832 s.

Take `Cc1ccc(S(=O)(=O)NCc2c(-c3ccccc3)nc3sc(C)nn23)c(C)c1`: the RP-LC retention time amounted to 922 s.

For `COc1ccccc1C(=O)N1CCN(c2ccc(-c3nc(C)c(C)s3)cn2)CC1`, the RP-LC retention time turned out to be 851 s.
